Laboratory results: PubChem BioAssay AID1259407 (Chemical Carcinogenesis Research Information System (CCRIS), 2018)
Calls of active or inactive are those of the source. The rule behind the calls is not given here.

Tested on: CCRIS mutagenicity, Ames/micronucleus/aberration tests
Assay: CCRIS mutagenicity studies

Question: How did the mutagenic call (End Point: IN VITRO CHROMOSOMAL ABERRATIONS, Test System: BOVINE LYMPHOCYTES, Metabolic Activation: NONE) turn out when `C[C@@H]1Cc2c(Cl)cc(C(=O)NC(Cc3ccccc3)C(=O)O)c(O)c2C(=O)O1` (stereo partly specified) was run?
Answer: Its mutagenic call is “active; positive (structural changes)”.

Question: What about the mutagenic call (End Point: IN VIVO CHROMOSOMAL ABERRATIONS, Test System: SPLENOCYTES, Species: RAT, Strain/Sex: FISCHER 344/MALE, Route: ORAL (GAVAGE)) of the same molecule?
Answer: The mutagenic call was “inactive; negative”.

Question: What about the mutagenic call (End Point: In vivo chromosomal aberrations, Test System: Bone marrow cells, Species: Mouse, Strain/Sex: Balb/C / Male, Route: Intraperitoneal) of the same molecule?
Answer: The mutagenic call was “active; positive (structural changes)”.

Question: And the mutagenic call (End Point: In vivo micronucleus, Test System: Bone marrow polychromatic erythrocytes, Species: Rat, Strain/Sex: Sprague-Dawley/Male, Route: Oral)?
Answer: The mutagenic call was “active; positive. addition of inula crithmoides extract inhibited the response”.

Question: And the mutagenic call (Test System: AMES SALMONELLA TYPHIMURIUM, Strain/Indicator: TA97, Metabolic Activation: HAMSTER, LIVER, S-9, AROCLOR 1254 (10 OR 30%), Method: PREINCUBATION)?
Answer: The mutagenic call was “inactive; negative”.

Question: And the mutagenic call (Test System: AMES SALMONELLA TYPHIMURIUM, Strain/Indicator: TA97, Metabolic Activation: HAMSTER, LIVER, S-9, AROCLOR 1254, Method: PREINCUBATION)?
Answer: The mutagenic call was “inactive; negative”.

Question: And the mutagenic call (Test System: AMES SALMONELLA TYPHIMURIUM, Strain/Indicator: TA97, Metabolic Activation: NONE, Method: PREINCUBATION)?
Answer: Its mutagenic call is “inactive; negative”.

Question: And the mutagenic call (Test System: AMES SALMONELLA TYPHIMURIUM, Strain/Indicator: TA97, Metabolic Activation: RAT, LIVER, S-9, AROCLOR 1254 (10 OR 30%), Method: PREINCUBATION)?
Answer: Its mutagenic call is “inactive; negative”.

Question: What about the mutagenic call (Test System: AMES SALMONELLA TYPHIMURIUM, Strain/Indicator: TA97, Metabolic Activation: RAT, LIVER, S-9, AROCLOR 1254, Method: PREINCUBATION) of the same molecule?
Answer: The mutagenic call was “inactive; negative”.

Question: And the mutagenic call (Test System: AMES SALMONELLA TYPHIMURIUM, Strain/Indicator: TA97A, Metabolic Activation: NONE, Method: PREINCUBATION)?
Answer: The mutagenic call was “inactive; negative”.

Question: What about the mutagenic call (Test System: AMES SALMONELLA TYPHIMURIUM, Strain/Indicator: TA97A, Metabolic Activation: RAT LIVER S-9, Method: PREINCUBATION) of the same molecule?
Answer: Its mutagenic call is “inactive; negative”.

Question: And the mutagenic call (Test System: AMES SALMONELLA TYPHIMURIUM, Strain/Indicator: TA98, Metabolic Activation: HAMSTER, LIVER, S-9, AROCLOR 1254 (10 OR 30%), Method: PREINCUBATION)?
Answer: The mutagenic call was “inactive; negative”.

Question: And the mutagenic call (Test System: AMES SALMONELLA TYPHIMURIUM, Strain/Indicator: TA98, Metabolic Activation: HAMSTER, LIVER, S-9, AROCLOR 1254, Method: PREINCUBATION)?
Answer: Its mutagenic call is “inactive; negative”.

Question: What about the mutagenic call (Test System: AMES SALMONELLA TYPHIMURIUM, Strain/Indicator: TA98, Metabolic Activation: HUMAN HEPG2 CELL S-9, Method: PREINCUBATION) of the same molecule?
Answer: The mutagenic call was “inactive; negative”.

Question: What about the mutagenic call (Test System: AMES SALMONELLA TYPHIMURIUM, Strain/Indicator: TA98, Metabolic Activation: MOUSE KIDNEY S-9, NADP OR ARACHIDONIC ACID (10%), Method: MICROMETHOD) of the same molecule?
Answer: Its mutagenic call is “active; positive”.

Question: And the mutagenic call (Test System: AMES SALMONELLA TYPHIMURIUM, Strain/Indicator: TA98, Metabolic Activation: MOUSE LIVER S-9 (10%), Method: MICROMETHOD)?
Answer: Its mutagenic call is “inactive; negative”.

Question: What about the mutagenic call (Test System: AMES SALMONELLA TYPHIMURIUM, Strain/Indicator: TA98, Metabolic Activation: NONE, Method: PREINCUBATION) of the same molecule?
Answer: The mutagenic call was “inactive; negative”.

Question: And the mutagenic call (Test System: AMES SALMONELLA TYPHIMURIUM, Strain/Indicator: TA98, Metabolic Activation: NONE, Method: STANDARD PLATE)?
Answer: Its mutagenic call is “inactive; negative”.

Question: And the mutagenic call (Test System: AMES SALMONELLA TYPHIMURIUM, Strain/Indicator: TA98, Metabolic Activation: RAT LIVER S-9, AROCLOR 1254 (10%), Method: MICROMETHOD)?
Answer: The mutagenic call was “inactive; negative”.

Question: What about the mutagenic call (Test System: AMES SALMONELLA TYPHIMURIUM, Strain/Indicator: TA98, Metabolic Activation: RAT LIVER S-9, Method: PREINCUBATION) of the same molecule?
Answer: The mutagenic call was “inactive; negative”.

Question: What about the mutagenic call (Test System: AMES SALMONELLA TYPHIMURIUM, Strain/Indicator: TA98, Metabolic Activation: RAT, LIVER, S-9, AROCLOR 1254 (10 OR 30%), Method: PREINCUBATION) of the same molecule?
Answer: The mutagenic call was “inactive; negative”.

Question: And the mutagenic call (Test System: AMES SALMONELLA TYPHIMURIUM, Strain/Indicator: TA98, Metabolic Activation: RAT, LIVER, S-9, AROCLOR 1254, Method: PREINCUBATION)?
Answer: Its mutagenic call is “inactive; negative”.

Question: And the mutagenic call (Test System: AMES SALMONELLA TYPHIMURIUM, Strain/Indicator: TA98, Metabolic Activation: RAT, LIVER, S-9, AROCLOR 1254, Method: STANDARD PLATE)?
Answer: The mutagenic call was “inactive; negative”.

Question: And the mutagenic call (Test System: AMES SALMONELLA TYPHIMURIUM, Strain/Indicator: TA100, Metabolic Activation: HAMSTER, LIVER, S-9, AROCLOR 1254 (10 OR 30%), Method: PREINCUBATION)?
Answer: Its mutagenic call is “inactive; negative”.

Question: And the mutagenic call (Test System: AMES SALMONELLA TYPHIMURIUM, Strain/Indicator: TA100, Metabolic Activation: HAMSTER, LIVER, S-9, AROCLOR 1254, Method: PREINCUBATION)?
Answer: The mutagenic call was “inactive; negative”.

Question: And the mutagenic call (Test System: AMES SALMONELLA TYPHIMURIUM, Strain/Indicator: TA100, Metabolic Activation: HUMAN HEPG2 CELL S-9, Method: PREINCUBATION)?
Answer: Its mutagenic call is “inactive; negative”.

Question: What about the mutagenic call (Test System: AMES SALMONELLA TYPHIMURIUM, Strain/Indicator: TA100, Metabolic Activation: NONE, Method: STANDARD PLATE) of the same molecule?
Answer: The mutagenic call was “inactive; negative”.

Question: And the mutagenic call (Test System: AMES SALMONELLA TYPHIMURIUM, Strain/Indicator: TA100, Metabolic Activation: RAT LIVER S-9, Method: PREINCUBATION)?
Answer: The mutagenic call was “inactive; negative”.

Question: What about the mutagenic call (Test System: AMES SALMONELLA TYPHIMURIUM, Strain/Indicator: TA100, Metabolic Activation: RAT, LIVER, MICROSOMES, PHENOBARBITAL, Method: STANDARD PLATE) of the same molecule?
Answer: Its mutagenic call is “active; positive”.

Question: And the mutagenic call (Test System: AMES SALMONELLA TYPHIMURIUM, Strain/Indicator: TA100, Metabolic Activation: RAT, LIVER, S-9, AROCLOR 1254 (10 OR 30%), Method: PREINCUBATION)?
Answer: The mutagenic call was “inactive; negative”.

Question: And the mutagenic call (Test System: AMES SALMONELLA TYPHIMURIUM, Strain/Indicator: TA100, Metabolic Activation: RAT, LIVER, S-9, AROCLOR 1254, Method: PREINCUBATION)?
Answer: Its mutagenic call is “inactive; negative”.

Question: And the mutagenic call (Test System: AMES SALMONELLA TYPHIMURIUM, Strain/Indicator: TA100, Metabolic Activation: RAT, LIVER, S-9, AROCLOR 1254, Method: STANDARD PLATE)?
Answer: The mutagenic call was “inactive; negative”.

Question: And the mutagenic call (Test System: AMES SALMONELLA TYPHIMURIUM, Strain/Indicator: TA100, Metabolic Activation: RAT, LIVER, S-9, PHENOBARBITAL, Method: PREINCUBATION)?
Answer: Its mutagenic call is “inactive; negative”.

Question: And the mutagenic call (Test System: AMES SALMONELLA TYPHIMURIUM, Strain/Indicator: TA102, Metabolic Activation: NONE, Method: PREINCUBATION)?
Answer: Its mutagenic call is “inactive; negative”.

Question: What about the mutagenic call (Test System: AMES SALMONELLA TYPHIMURIUM, Strain/Indicator: TA102, Metabolic Activation: NONE, Method: STANDARD PLATE) of the same molecule?
Answer: The mutagenic call was “inactive; negative”.

Question: What about the mutagenic call (Test System: AMES SALMONELLA TYPHIMURIUM, Strain/Indicator: TA102, Metabolic Activation: RAT LIVER S-9, Method: PREINCUBATION) of the same molecule?
Answer: The mutagenic call was “inactive; negative”.
